Measurements reported in the supplement of paper PMC10307832.

Experiments:
Test in all cases: relative viability (nuclei count vs DMSO), 5 days (fraction); higher = more cells survive
[1] = compound: C[C@@H](C(=O)N[C@@H](C1CCCCC1)C(=O)N2CCC[C@H]2C(=O)N[C@@H]3[C@@H](CC4=CC=CC=C34)OCC#CC#CCO[C@@H]5CC6=CC=CC=C6[C@@H]5NC(=O)[C@@H]7CCCN7C(=O)[C@H](C8CCCCC8)NC(=O)[C@H](C)NC)NC [AZD5582] + C[C@]1(O)C[C@@H](c2nc(-c3ccc4ccc(-c5ccccc5)nc4c3)c3c(N)nccn32)C1 [Linsitinib] (partner 1 µM)
Method in brief: (§1)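 Relative viability divides the nuclei count in treated wells by that in vehicle wells. Lung cancer cell lines were seeded in 1536-well plates, dosed by pin tool the next day, and fixed and stained after 5 days in one step with final 0.05% Triton X-100, 1% formaldehyde and 1 ug/ml Hoechst. Dosing was a single drug or a fixed anchor-drug dose plus five library-drug doses (not always all listed) in √10 steps, and values are medians of duplicate plates imaged at 4×.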

[2] = compound: Cn1nnc2c(C(N)=O)ncn2c1=O [Temozolomide] + C[C@@H](Oc1cc(-c2cnn(C3CCNCC3)c2)cnc1N)c1c(Cl)ccc(F)c1Cl [Crizotinib] (partner 1 µM)
Method in brief: as §1

[3] = compound: Cn1nnc2c(C(N)=O)ncn2c1=O [Temozolomide] + Nc1nc2[nH]cc(CCc3ccc(C(=O)N[C@@H](CCC(=O)O)C(=O)O)cc3)c2c(=O)[nH]1 [Pemetrexed] (partner 0.2 µM)
Method in brief: as §1

[4] = compound: Cn1nnc2c(C(N)=O)ncn2c1=O [Temozolomide] + O=C(c1cc(Cc2n[nH]c(=O)c3ccccc23)ccc1F)N1CCN(C(=O)C2CC2)CC1 [Olaparib] (partner 8 µM)
Method in brief: as §1

Row | Cell Line | relative viability ([1]; first compound 0.005 µM) | relative viability ([1]; first compound 0.01581 µM) | relative viability ([1]; first compound 0.05 µM) | relative viability ([2]; first compound 0.2 µM) | relative viability ([2]; first compound 0.6325 µM) | relative viability ([2]; first compound 2 µM) | relative viability ([2]; first compound 6.325 µM) | relative viability ([2]; first compound 20 µM) | relative viability ([3]; first compound 0.2 µM) | relative viability ([3]; first compound 0.6325 µM) | relative viability ([3]; first compound 2 µM) | relative viability ([3]; first compound 6.325 µM) | relative viability ([3]; first compound 20 µM) | relative viability ([4]; first compound 0.2 µM) | relative viability ([4]; first compound 0.6325 µM) | relative viability ([4]; first compound 2 µM) | relative viability ([4]; first compound 6.325 µM) | relative viability ([4]; first compound 20 µM) | relative viability ([1]; first compound 0.001581 µM)
1 | LCLC-97TM1 | 0.16 | 0.191 | 0.148 | 0.344 | 0.237 | 0.342 | 0.33 | 0.375 | 0.195 | 0.198 | 0.177 | 0.156 | 0.209 | 0.512 | 0.447 | 0.436 | 0.238 | 0.226 | –
2 | PC-3 [JPC-3] | 0.944 | 1.04 | 0.691 | 0.993 | 0.951 | 1.03 | 0.974 | 0.458 | 1.22 | 1.13 | 1.16 | 1.06 | 0.458 | 0.909 | 1.16 | 1.12 | 0.988 | 0.435 | 0.933
3 | NCI-H1648 | – | – | – | – | – | – | – | – | – | 0.614 | 0.554 | 0.696 | 0.82 | – | 1.09 | 0.654 | 0.826 | 0.468 | –
4 | NCI-H2170 | – | – | – | – | 1.26 | 1.21 | 0.999 | 0.494 | – | 0.283 | 0.264 | 0.253 | 0.237 | – | 0.514 | 0.466 | 0.245 | 0.137 | –
5 | NCI-H727 | 0.253 | 0.465 | 0.258 | 0.876 | 0.73 | 0.812 | 0.791 | 0.763 | – | – | – | – | – | – | 0.681 | 0.791 | 0.516 | 0.55 | 0.309
6 | A549 | 0.768 | 0.444 | 0.726 | 0.809 | 0.829 | 0.869 | 0.754 | 0.816 | – | – | – | – | – | 0.358 | 0.344 | 0.345 | 0.17 | 0.117 | 0.545
